# Measured values taken from PubChem BioAssay (NCI).
#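 Five compound concentrations were applied to cells in 96-well plates for 48 hours; endpoints were derived by simple linear interpolation of the resulting dose-response curve. At the GI50, growth is halved. The concentration for full growth arrest is given as TGI.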
# Legend:
# Assay in all cases: growth of human tumour cells (NCI), 48 h
# [1] = tested on: NCI-H23 lung
# [2] = tested on: OVCAR-3 ovarian
# [3] = tested on: SNB-19 CNS
# [4] = tested on: EKVX NSCLC
# [5] = tested on: OVCAR-8 ovarian
# [6] = tested on: OVCAR-5 ovarian
# [7] = tested on: MDA-MB-231 breast
# [8] = tested on: UACC-62 melanoma
# [9] = tested on: ACHN renal
# [10] = tested on: SK-MEL-28 melanoma
SMILES,GI50 [1] [µM],TGI [1] [µM],GI50 [2] [µM],TGI [2] [µM],GI50 [3] [µM],TGI [3] [µM],GI50 [4] [µM],TGI [4] [µM],GI50 [5] [µM],TGI [5] [µM],GI50 [6] [µM],TGI [6] [µM],GI50 [7] [µM],TGI [7] [µM],GI50 [8] [µM],TGI [8] [µM],GI50 [9] [µM],TGI [9] [µM],GI50 [10] [µM],TGI [10] [µM]
NC1=NC(c2ccc(F)cc2)C2=C(N1)c1ccc3ccccc3c1OCC2 (stereo not given),50.7,> 100,2.73,> 100,16.2,> 100,5.95,75.2,14.5,> 100,> 100,> 100,47.4,> 100,3.14,30.9,29.7,> 100,18.6,> 100
C=C(C)[C@@H]1CC[C@]2(C(=O)NCCNCCNCCN)CC[C@]3(C)[C@H](CC[C@@H]4[C@@]5(C)CCC(=O)C(C)(C)[C@@H]5CC[C@]43C)[C@@H]12,9.14,17.4,7.65,15,8.5,18.1,7.34,14,8.41,16.2,8.78,18.4,8.04,15.8,8.96,19.1,13.8,> 50,8.5,17
CC(C)=CC1CC(C)C2(CCC3(C)CC4C(C(=O)CC4(C)O)/C(C=O)=C\CC32)O1 (stereo not given),–,0.264,–,0.0503,–,0.607,–,0.346,–,0.214,–,0.33,–,0.237,–,0.368,–,0.115,–,0.277
CNCCOC(=O)/C=C1/CCC2C(C(O)CC3C(C)(C(=O)OC)CCCC23C)C1C (stereo not given),0.0153,0.0355,< 0.0139,0.0276,0.0428,0.152,< 0.0136,0.0331,0.018,0.0331,0.0264,0.0693,0.0604,0.229,0.0235,0.0559,< 0.01,0.0173,0.029,0.0758
CC1(C)Cc2c(Br)c(Br)c(Br)c(OCC(O)CN3CCOCC3)c2O1 (stereo not given),13.5,27.6,12.3,28.5,13.4,26.4,7.72,20.5,11.3,35.4,14.8,28.8,10.1,22.5,13.8,27.5,15.1,28.7,15,31.9
CN(C)S(=O)(=O)c1ccc(Nc2ccc(O)c3c2C(=O)c2c([N+](=O)[O-])ccc(O)c2C3=O)cc1,–,> 100,–,> 100,–,> 100,–,> 100,–,> 100,–,> 100,–,> 100,–,> 100,–,> 100,–,> 100
CN1CCC(n2[nH]c(-c3ccccc3)c(Cc3ccccc3)c2=O)CC1,–,> 100,–,> 100,–,> 100,–,> 100,–,> 100,–,> 100,–,> 100,–,> 100,–,> 100,–,> 100
COc1cc2c(cc1OCCCN1CCN(c3cc(=O)oc4c(C)c(OC)ccc34)CC1)N=C[C@@H]1CCCN1C2=O,1.89,5.2,0.471,3.65,2.52,> 100,4.05,> 47.3,2.62,> 100,1.34,> 100,0.984,5.99,1.36,2.87,1.86,4.55,2.56,8.45
COc1ccc(-c2ccccc2)cc1-c1c(Nc2cc(Cl)cc(Cl)c2O)c(=O)c1=O,1.38,> 50,1.28,3.88,1.84,> 50,1.51,> 50,1.84,> 50,1.77,> 50,1.2,3.17,1.29,> 50,1.5,> 50,2.05,> 50
CC1(C)N[P+]2(Nc3ccccc3O2)OC1=O (stereo not given),–,> 100,–,> 100,–,> 100,–,> 100,–,> 100,–,> 100,–,> 100,–,64,–,> 100,–,> 100
COc1ccc(/C=C\c2cc(OC)c(OC)c(OC)c2)cc1OCC(=O)Nc1nc2ccc(OC(F)(F)F)cc2s1,4.39,> 100,3.37,11.3,7.08,> 100,7.89,> 100,5,> 100,31.2,> 100,5.16,> 100,5.11,> 100,8.31,> 100,4.57,> 100
COc1cc(-c2n/c(=C\c3c(O)[nH]c4ccccc34)cc3c2=Nc2ccccc2-3)cc(OC)c1OC,0.39,> 100,0.506,2.6,2.68,> 100,> 24.9,> 100,2.53,> 100,4.32,> 100,2.11,> 28.2,0.707,> 100,1.11,> 100,6.43,> 100
Cc1ccc(/C(=C/C=C(C#N)C#N)Sc2ccccn2)cc1,3.68,10.9,2.09,8.25,10.1,> 45.5,14.6,31.1,7.41,24.3,4.13,13.9,2.3,7.45,2.51,7.23,1.83,3.52,2.08,4.51
Cc1cc2nc3c4cccc(O)c4n(CCN(C)C)c3nc2cc1C,3.07,16,3.11,15.7,2.62,26.3,2.89,17.7,1.83,10.3,2.97,9.1,2.04,5.63,1.73,3.73,1.09,3.18,1.78,3.34
c1cncc(CNc2ncn[nH]2)c1,–,> 100,–,> 100,–,> 100,–,> 100,–,> 100,–,> 100,–,> 100,–,> 100,–,> 100,–,> 100
